Results taken from patent publication US20110217280A1, “METHODS FOR TREATING NEUROPSYCHIATRIC CONDITIONS” (priority 2007, published 2011).

Tests used:
[1] = test system: double transgenic GFP-M/DN-DISC1 mice; test: In vivo monitoring of dendritic spine plasticity by two photon laser scanning microscopy; conditions: 1 mg/kg i.p. once per day, imaging P40 to P70
From the text: In the following experiment, dendritic spine plasticity is directly monitored in vivo by two photon laser scanning microscopy (TPLSM) in double transgenic GFP-M/DN-DISC1 mice treated with a PAK activator or a placebo. Mice (C57BL/6) expressing GFP in a subset of cortical layer 5 neurons (transgenic line GFP-M described in Feng et al., 2000, Neuron 28:41-51) are crossed with DN-DISC1 C57BL/6 DN-DISC1 mice (Hikida et al (2007), Proc Natl Acad Sci USA, 104(36):14501-14506) to obtain heterozygous transgenic mice, which are then crossed to obtain homozygous double transgenic GFPM/DN-DISC1 mice used in this study.
GFP-M/DN-DISC1 animals aged 28-61 days are anesthetized using avertin ([…]; Sigma, St. Louis, Mo.). The skull is exposed, scrubbed, and cleaned with ethanol. […]
For in vivo two photon imaging, a two-photon laser scanning microscope is used as described in Majewska et al, (2000), Pflügers Arch, 441:398-408. […] Fluorescence is detected using photomultiplier tubes (HC125-02; Hamamatsu, Shizouka, Japan) in whole-field detection mode. The craniotomy over the visual cortex is initially identified under whole-field fluorescence illumination, and areas with superficial dendrites are identified using a 20×, 0.95 numerical aperture lens (IR2; Olympus Optical). […]

PAK1 = PAK1 (Homo sapiens, UniProt Q13153); conditions: independent of GTPase activators such as Cdc42 or Rac; cited from earlier work
Sequence of PAK1 (Q13153 whole entry): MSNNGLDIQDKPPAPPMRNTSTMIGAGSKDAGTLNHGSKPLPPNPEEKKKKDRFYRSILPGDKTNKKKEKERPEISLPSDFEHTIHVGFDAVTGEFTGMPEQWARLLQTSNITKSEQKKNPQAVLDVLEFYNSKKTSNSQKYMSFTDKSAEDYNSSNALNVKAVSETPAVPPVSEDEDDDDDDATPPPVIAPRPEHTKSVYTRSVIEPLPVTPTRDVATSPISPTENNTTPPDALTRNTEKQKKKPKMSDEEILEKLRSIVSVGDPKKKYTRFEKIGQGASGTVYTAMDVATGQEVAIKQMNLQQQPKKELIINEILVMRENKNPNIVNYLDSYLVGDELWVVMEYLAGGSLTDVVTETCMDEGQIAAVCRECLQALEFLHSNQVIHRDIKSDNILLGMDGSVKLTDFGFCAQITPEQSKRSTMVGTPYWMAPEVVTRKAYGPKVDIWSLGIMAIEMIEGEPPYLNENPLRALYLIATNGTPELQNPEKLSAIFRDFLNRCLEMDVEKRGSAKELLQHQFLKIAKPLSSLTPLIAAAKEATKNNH

CCCCCCCCCCCCCC=CC(O)C(N)CO (stereo not drawn) [sphingosine, 2-amino-4-octadecene-1,3-diol]
spine density relative to untreated control animals [1]: increased spine density | spine turnover relative to untreated control animals [1]: reduced spine turnover | activation of PAK1 (PAK1): activate PAK1 independently of GTPase activators
